Experimental data taken from patent US9700044B2, “Symmetrical marinopyrrole derivatives as potential antibiotic agents” (priority 2013, dated 2017).
≈ marks a conversion by molar mass, not a printed value. Where two headings read alike, the source gives them in different places.

Assays:
[1] = system: Methicillin-susceptible Staphylococcus aureus (MSSA); assay: MIC by agar dilution, MSSA clinical isolates; assay type: cell-based; details: MSSA
Excerpt: (§1) A panel of multiple resistance Gram-positive and Gram-negative pathogens listed in Tables 1 and 2 was used to evaluate the antimicrobial activity of marinopyrrole derivatives (Chart 1) with vancomycin as a positive control. Except for those marked with WHO, all pathogens were isolated between 2008 and 2010 in hospitals located in Beijing; Guangzhou; Sichuan, Shandong and Jiangsu Province. Determination of the minimum inhibitory concentration (MIC) was done by the guidelines of the Clinical and Laboratory Standards Institute (Clinical and Laboratory Standards Institute, Performance standards for antimicrobial susceptibility testing, seventeenth informational supplement. 2007, 27, M100-S17). The susceptibility tests of a bacterial strain to a marinopyrrole derivative were performed by an agar dilution method. Briefly, each sterile petri dish contained a final volume of 15 mL comprising 1 mL of a marinopyrrole derivative and 14 mL of Mueller-Hinton broth. The concentrations of a marinopyrrole derivative are 128, 64, 32, 16, 8, 4, 2, 1, 0.5, 0.25, 0.125, 0.06, 0.03, 0.015 and 0.008 μg/mL. The petri dish containing the broth with different concentration of antibiotics was first inoculated with 10^5 CFU/mL (Denley A400, United Kingdom) and the culture was then incubated with shaking at 35-37° C. for 18-20 h. The potency of the compound was determined and expressed as minimum inhibitory concentration (MIC) in μg/mL. The MIC was determined as the lowest concentration of antibiotic that inhibited visible bacterial growth.

[2] = system: Methicillin-resistant Staphylococcus aureus (MRSA); assay: MIC by agar dilution, MRSA clinical isolates; assay type: cell-based; details: MRSA
Excerpt: as §1

[3] = system: Methicillin-resistant Staphylococcus epidermidis (MRSE); assay: MIC by agar dilution, MRSE clinical isolates; assay type: cell-based; details: MRSE
Excerpt: as §1

[4] = system: Moderately vancomycin-resistant Enterococci faecium with the VanA gene (WHO-3); assay: MIC by agar dilution, VRE (WHO-3); assay type: cell-based
Excerpt: as §1

[5] = system: Oxacillin-resistant Staphylococcus aureus (WHO-25); assay: MIC by agar dilution, ORSA (WHO-25); assay type: cell-based
Excerpt: as §1

[6] = system: Methicillin-resistant Staphylococcus aureus with the mec A gene and PBP2a (WHO-31); assay: MIC by agar dilution, MRSA (WHO-31); assay type: cell-based
Excerpt: as §1

[7] = system: Highly vancomycin-resistant Enterococci faecalis (VRE); assay: MIC by agar dilution, highly resistant VRE; assay type: cell-based
Excerpt: as §1

K. penumonia = assay: MIC by agar dilution, K. penumonia; assay type: cell-based, K. pneumonia
Excerpt: as §1

P. aeruginosa = assay: MIC by agar dilution, P. aeruginosa; assay type: cell-based
Excerpt: as §1

E. coli = assay: MIC by agar dilution, E. coli; assay type: cell-based
Excerpt: as §1

[8] = Staphylococcus aureus, Table 1, 10 isolates
[9] = Staphylococcus aureus, Table 2, data from 8 isolates
[10] = Staphylococcus aureus, Table 3, data from 8 isolates

Compound `COc1cc(OC)c(C(=O)c2[nH]c(Cl)c(Cl)c2-n2c(C(=O)c3cc(Cl)c(OC)cc3OC)cc(Cl)c2Cl)cc1Cl` [Compound 1n] has an MIC ([1]; Table 1, 10 isolates) greater than 64 µg/mL, an MIC ([2]; Table 1, 10 isolates) greater than 64 µg/mL and an MIC ([3]; Table 1, 3 isolates) greater than 64 µg/mL. The MIC ([4]; Table 1, VRE (WHO-3), 1 isolate) was greater than 64 µg/mL, the MIC ([5]; Table 1, ORSA (WHO-25), 1 isolate) was greater than 64 µg/mL and the MIC ([6]; Table 1, MRSA (WHO-31), 1 isolate) was greater than 64 µg/mL. For the same compound, the MIC ([7]; Table 1, VRE (highly vancomycin-resistant E. faecalis), 2 isolates) was greater than 64 µg/mL, the MIC (K. penumonia; Table 1, K. penumonia, 4 isolates, value over three Gram-negative pathogens) was greater than 64 µg/mL and the MIC (P. aeruginosa; Table 1, P. aeruginosa, 4 isolates, value over three Gram-negative pathogens) was greater than 64 µg/mL. It also gave an MIC (E. coli; Table 1, E. coli, 4 isolates, value over three Gram-negative pathogens) greater than 64 µg/mL.

For `CN[C@H](CC(C)C)C(=O)N[C@H]1C(=O)N[C@@H](CC(N)=O)C(=O)N[C@H]2C(=O)N[C@H]3C(=O)N[C@H](C(=O)N[C@H](C(=O)O)c4cc(O)cc(O)c4-c4cc3ccc4O)[C@H](O)c3ccc(c(Cl)c3)Oc3cc2cc(c3O[C@@H]2O[C@H](CO)[C@@H](O)[C@H](O)[C@H]2O[C@H]2C[C@](C)(N)[C@H](O)[C@H](C)O2)Oc2ccc(cc2Cl)[C@H]1O` [Van, Vancomycin, reference compound], the MIC [1, 8] was 0.5 to 1 µg/mL (≈ 0.345 to 0.69 µM), the MIC [1, 9] was 1 µg/mL (≈ 0.69 µM) and the MIC [1, 10] was 1 µg/mL (≈ 0.69 µM). For the same compound, the MIC [2, 8] was 0.25 to 0.5 µg/mL (≈ 0.173 to 0.345 µM), the MIC [2, 9] was 0.5 to 1 µg/mL (≈ 0.345 to 0.69 µM) and the MIC [2, 10] was 0.5 to 1 µg/mL (≈ 0.345 to 0.69 µM). It also gave an MIC ([3]; Staphylococcus epidermidis, Table 1, 3 isolates) of 0.13 to 0.5 µg/mL (≈ 0.0897 to 0.345 µM), an MIC ([3]; Staphylococcus epidermidis, Table 2, data from 4 isolates) of 0.5 to 1 µg/mL (≈ 0.345 to 0.69 µM) and an MIC ([3]; Staphylococcus epidermidis, Table 3, data from 4 isolates) of 0.5 to 1 µg/mL (≈ 0.345 to 0.69 µM). The MIC ([4]; Enterococcus) was greater than 128 µg/mL, the MIC ([4]; Enterococcus, VRE) was greater than 64 µg/mL and the MIC ([4]; Table 3, WHO-3) was greater than 128 µg/mL. The MIC ([5]; Staphylococcus aureus, Table 1, ORSA (WHO-25), 1 isolate) was 2 µg/mL (≈ 1.38 µM), the MIC ([5]; Staphylococcus aureus, Table 3, WHO-25) was 4 µg/mL (≈ 2.76 µM) and the MIC ([5]; Staphylococcus aureus, Table 2, WHO-25) was 4 µg/mL (≈ 2.76 µM). It also gave an MIC ([6]; Staphylococcus aureus) of 1 µg/mL (≈ 0.69 µM), an MIC ([6]; Staphylococcus aureus, MRSA) of 0.5 µg/mL (≈ 0.345 µM) and an MIC ([6]; Table 3, WHO-31) of 1 µg/mL (≈ 0.69 µM). The MIC [7] was greater than 128 µg/mL, the MIC (K. penumonia; Klebsiella pneumoniae) was greater than 128 µg/mL and the MIC (P. aeruginosa; Pseudomonas aeruginosa) was greater than 128 µg/mL. The MIC (E. coli; Escherichia coli) was greater than 128 µg/mL.
